According to patent US9771334B2, “Triketone compound and preparation method and use thereof” (SHANDONG CYNDA CHEMICAL CO., LTD., priority 2013, dated 2017):

What was measured:
Format in all cases: in vivo
abutilon theophrasti = test: Herbicidal activity, pot culture method (primary and secondary screening test); settings: sprayed at 3-leaf stage; for inhibition ratio, Abutilon theophrasti: investigated 15 days later; for herbicidal activity inhibition ratio (%), Abutilon theophrasti: primary screening, pot culture, 150 g/ha, result 15 days later
Procedure, shortened: (§1)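 Inhibition ratio (%) was scored 15 days after post-emergence spraying of 3-leaf-stage weeds grown in pots of soil:seedling matrix (1:2). Dose was 150 g/ha from a 0.2 g/L DMF/water solution applied by spray tower. The secondary screening used the same method at a reduced dose.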

amaranthus retroflexus = test: as above; settings: sprayed at 3-leaf stage; for inhibition ratio, Amaranthus retroflexus: investigated 15 days later; for herbicidal activity inhibition ratio (%), Amaranthus retroflexus: primary screening, pot culture, 150 g/ha, result 15 days later
Procedure, shortened: as §1

digitaria sanguinalis = test: as above; settings: sprayed at 3-leaf stage; for inhibition ratio, Digitaria sanguinalis: investigated 15 days later; for herbicidal activity inhibition ratio (%), Digitaria sanguinalis: primary screening, pot culture, 150 g/ha, result 15 days later
Procedure, shortened: as §1

echinochloa crusgalli = test: as above; settings: sprayed at 3-leaf stage; for inhibition ratio, Echinochloa crusgalli: investigated 15 days later; for herbicidal activity inhibition ratio (%), Echinochloa crusgalli: primary screening, pot culture, 150 g/ha, result 15 days later
Procedure, shortened: as §1

eclipta prostrata = test: as above; settings: sprayed at 3-leaf stage; for inhibition ratio, Eclipta prostrata: investigated 15 days later; for herbicidal activity inhibition ratio (%), Eclipta prostrata: primary screening, pot culture, 150 g/ha, result 15 days later
Procedure, shortened: as §1

setaria viridis = test: as above; settings: sprayed at 3-leaf stage; for inhibition ratio, Setaria viridis: investigated 15 days later; for herbicidal activity inhibition ratio (%), Setaria viridis: primary screening, pot culture, 150 g/ha, result 15 days later
Procedure, shortened: as §1

maize = test: Crop safety test (pot culture method); settings: plants with about 4-5 leaves, investigated 15 days later
From the text: (§2) This test example is for describing crop safety of the compound with a structure shown in Formula (1). Crop safety test method (pot culture method): The test targets are wheat and maize. Take flowerpots with an inner diameter of 12 cm, put composite soil (vegetable garden soil:seedling matrix=1:2, v/v) into them till ¾ of flowerpot height, directly sow the crop seeds (budding rate>85%), cover them with 0.2 cm thick soil, and keep the plants for future use when they grow to have about 4-5 leaves. Each compound is dissolved in N,N-dimethylformamide at doses of 75 g/ha or 150 g/ha and diluted with distilled water containing 0.1% tween-80 emulsifier to form 0.1 g/L (75 g/ha) solution and 0.2 g/L (150 g/ha) solution respectively. The solutions are sprayed through an automatic spray tower. After the solutions on weed leaves are dried in the air, the flowerpots are moved into a greenhouse for cultivation. The result is investigated 15 days later.

wheat = test: Crop safety test (pot culture method); settings: plants with about 4-5 leaves, investigated 15 days later
From the text: as §2

## Cn1c(=O)n(-c2ccccc2Cl)c(=O)c2cc(C(=O)C3=C(O)CC(C)(C)CC3=O)ccc21 [Compound 6]
Abutilon theophrasti; dose 37.5 g/ha
  inhibition ratio, Abutilon theophrasti: 70%
Abutilon theophrasti; dose 75 g/ha
  inhibition ratio, Abutilon theophrasti: 70%
Abutilon theophrasti
  herbicidal activity inhibition ratio (%), Abutilon theophrasti: 100%
Amaranthus retroflexus; dose 37.5 g/ha
  inhibition ratio, Amaranthus retroflexus: 70%
Amaranthus retroflexus; dose 75 g/ha
  inhibition ratio, Amaranthus retroflexus: 75%
Amaranthus retroflexus
  herbicidal activity inhibition ratio (%), Amaranthus retroflexus: 80%
Digitaria sanguinalis; dose 37.5 g/ha
  inhibition ratio, Digitaria sanguinalis: 60%
Digitaria sanguinalis; dose 75 g/ha
  inhibition ratio, Digitaria sanguinalis: 70%
Digitaria sanguinalis
  herbicidal activity inhibition ratio (%), Digitaria sanguinalis: 75%
Echinochloa crusgalli; dose 37.5 g/ha
  inhibition ratio, Echinochloa crusgalli: 70%
Echinochloa crusgalli; dose 75 g/ha
  inhibition ratio, Echinochloa crusgalli: 75%
Echinochloa crusgalli
  herbicidal activity inhibition ratio (%), Echinochloa crusgalli: 80%
Eclipta prostrata; dose 37.5 g/ha
  inhibition ratio, Eclipta prostrata: 70%
Eclipta prostrata; dose 75 g/ha
  inhibition ratio, Eclipta prostrata: 70%
Eclipta prostrata
  herbicidal activity inhibition ratio (%), Eclipta prostrata: 85%
Setaria viridis; dose 37.5 g/ha
  inhibition ratio, Setaria viridis: 60%
Setaria viridis; dose 75 g/ha
  inhibition ratio, Setaria viridis: 60%
Setaria viridis
  herbicidal activity inhibition ratio (%), Setaria viridis: 90%
maize; dose 75 g/ha
  inhibition ratio, Maize (crop safety): 0%
maize; dose 150 g/ha
  inhibition ratio, Maize (crop safety): 15%
wheat; dose 75 g/ha
  inhibition ratio, Wheat (crop safety): 0%
wheat; dose 150 g/ha
  inhibition ratio, Wheat (crop safety): 0%

## Cn1c(=O)n(-c2ccccc2Cl)c(=O)c2cc(C(=O)C3=C(O)CCCC3=O)ccc21 [Compound 5]
Abutilon theophrasti; dose 37.5 g/ha
  inhibition ratio, Abutilon theophrasti: 60%
Abutilon theophrasti; dose 75 g/ha
  inhibition ratio, Abutilon theophrasti: 70%
Abutilon theophrasti
  herbicidal activity inhibition ratio (%), Abutilon theophrasti: 85%
Amaranthus retroflexus; dose 37.5 g/ha
  inhibition ratio, Amaranthus retroflexus: 60%
Amaranthus retroflexus; dose 75 g/ha
  inhibition ratio, Amaranthus retroflexus: 75%
Amaranthus retroflexus
  herbicidal activity inhibition ratio (%), Amaranthus retroflexus: 80%
Digitaria sanguinalis; dose 37.5 g/ha
  inhibition ratio, Digitaria sanguinalis: 40%
Digitaria sanguinalis; dose 75 g/ha
  inhibition ratio, Digitaria sanguinalis: 90%
Digitaria sanguinalis
  herbicidal activity inhibition ratio (%), Digitaria sanguinalis: 100%
Echinochloa crusgalli; dose 37.5 g/ha
  inhibition ratio, Echinochloa crusgalli: 60%
Echinochloa crusgalli; dose 75 g/ha
  inhibition ratio, Echinochloa crusgalli: 90%
Echinochloa crusgalli
  herbicidal activity inhibition ratio (%), Echinochloa crusgalli: 80%
Eclipta prostrata; dose 37.5 g/ha
  inhibition ratio, Eclipta prostrata: 30%
Eclipta prostrata; dose 75 g/ha
  inhibition ratio, Eclipta prostrata: 40%
Eclipta prostrata
  herbicidal activity inhibition ratio (%), Eclipta prostrata: 80%
Setaria viridis; dose 37.5 g/ha
  inhibition ratio, Setaria viridis: 60%
Setaria viridis; dose 75 g/ha
  inhibition ratio, Setaria viridis: 90%
Setaria viridis
  herbicidal activity inhibition ratio (%), Setaria viridis: 100%
maize; dose 75 g/ha
  inhibition ratio, Maize (crop safety): 0%
maize; dose 150 g/ha
  inhibition ratio, Maize (crop safety): 15%
wheat; dose 75 g/ha
  inhibition ratio, Wheat (crop safety): 0%
wheat; dose 150 g/ha
  inhibition ratio, Wheat (crop safety): 0%

## CC(C)c1ccccc1-n1c(=O)c2cc(C(=O)C3=C(O)CCCC3=O)ccc2n(C)c1=O [Compound 65]
Abutilon theophrasti; dose 37.5 g/ha
  inhibition ratio, Abutilon theophrasti: 50%
Abutilon theophrasti; dose 75 g/ha
  inhibition ratio, Abutilon theophrasti: 70%
Abutilon theophrasti
  herbicidal activity inhibition ratio (%), Abutilon theophrasti: 98%
Amaranthus retroflexus; dose 37.5 g/ha
  inhibition ratio, Amaranthus retroflexus: 50%
Amaranthus retroflexus; dose 75 g/ha
  inhibition ratio, Amaranthus retroflexus: 60%
Amaranthus retroflexus
  herbicidal activity inhibition ratio (%), Amaranthus retroflexus: 90%
Digitaria sanguinalis; dose 37.5 g/ha
  inhibition ratio, Digitaria sanguinalis: 30%
Digitaria sanguinalis; dose 75 g/ha
  inhibition ratio, Digitaria sanguinalis: 40%
Digitaria sanguinalis
  herbicidal activity inhibition ratio (%), Digitaria sanguinalis: 100%
Echinochloa crusgalli; dose 37.5 g/ha
  inhibition ratio, Echinochloa crusgalli: 95%
Echinochloa crusgalli; dose 75 g/ha
  inhibition ratio, Echinochloa crusgalli: 100%
Echinochloa crusgalli
  herbicidal activity inhibition ratio (%), Echinochloa crusgalli: 80%
Eclipta prostrata; dose 37.5 g/ha
  inhibition ratio, Eclipta prostrata: 30%
Eclipta prostrata; dose 75 g/ha
  inhibition ratio, Eclipta prostrata: 50%
Eclipta prostrata
  herbicidal activity inhibition ratio (%), Eclipta prostrata: 80%
Setaria viridis; dose 37.5 g/ha
  inhibition ratio, Setaria viridis: 80%
Setaria viridis; dose 75 g/ha
  inhibition ratio, Setaria viridis: 85%
Setaria viridis
  herbicidal activity inhibition ratio (%), Setaria viridis: 98%
maize; dose 75 g/ha
  inhibition ratio, Maize (crop safety): 0%
maize; dose 150 g/ha
  inhibition ratio, Maize (crop safety): 10%
wheat; dose 75 g/ha
  inhibition ratio, Wheat (crop safety): 0%
wheat; dose 150 g/ha
  inhibition ratio, Wheat (crop safety): 10%

## CCn1c(=O)n(-c2ccccc2C)c(=O)c2cc(C(=O)C3=C(O)CCCC3=O)ccc21 [Compound 66]
Abutilon theophrasti; dose 37.5 g/ha
  inhibition ratio, Abutilon theophrasti: 100%
Abutilon theophrasti; dose 75 g/ha
  inhibition ratio, Abutilon theophrasti: 100%
Abutilon theophrasti
  herbicidal activity inhibition ratio (%), Abutilon theophrasti: 100%
Amaranthus retroflexus; dose 37.5 g/ha
  inhibition ratio, Amaranthus retroflexus: 90%
Amaranthus retroflexus; dose 75 g/ha
  inhibition ratio, Amaranthus retroflexus: 100%
Amaranthus retroflexus
  herbicidal activity inhibition ratio (%), Amaranthus retroflexus: 93%
Digitaria sanguinalis; dose 37.5 g/ha
  inhibition ratio, Digitaria sanguinalis: 60%
Digitaria sanguinalis; dose 75 g/ha
  inhibition ratio, Digitaria sanguinalis: 97.5%
Digitaria sanguinalis
  herbicidal activity inhibition ratio (%), Digitaria sanguinalis: 95%
Echinochloa crusgalli; dose 37.5 g/ha
  inhibition ratio, Echinochloa crusgalli: 100%
Echinochloa crusgalli; dose 75 g/ha
  inhibition ratio, Echinochloa crusgalli: 100%
Echinochloa crusgalli
  herbicidal activity inhibition ratio (%), Echinochloa crusgalli: 100%
Eclipta prostrata; dose 37.5 g/ha
  inhibition ratio, Eclipta prostrata: 95%
Eclipta prostrata; dose 75 g/ha
  inhibition ratio, Eclipta prostrata: 100%
Eclipta prostrata
  herbicidal activity inhibition ratio (%), Eclipta prostrata: 95%
Setaria viridis; dose 37.5 g/ha
  inhibition ratio, Setaria viridis: 97.5%
Setaria viridis; dose 75 g/ha
  inhibition ratio, Setaria viridis: 100%
Setaria viridis
  herbicidal activity inhibition ratio (%), Setaria viridis: 100%
maize; dose 75 g/ha
  inhibition ratio, Maize (crop safety): 0%
maize; dose 150 g/ha
  inhibition ratio, Maize (crop safety): 5%
wheat; dose 75 g/ha
  inhibition ratio, Wheat (crop safety): 0%
wheat; dose 150 g/ha
  inhibition ratio, Wheat (crop safety): 10%

## CCn1c(=O)n(-c2ccccc2C)c(=O)c2cc(C(=O)C3=C(O)CC(C)CC3=O)ccc21 (centres unmarked) [Compound 70]
Abutilon theophrasti; dose 37.5 g/ha
  inhibition ratio, Abutilon theophrasti: 50%
Abutilon theophrasti; dose 75 g/ha
  inhibition ratio, Abutilon theophrasti: 73%
Abutilon theophrasti
  herbicidal activity inhibition ratio (%), Abutilon theophrasti: 100%
Amaranthus retroflexus; dose 37.5 g/ha
  inhibition ratio, Amaranthus retroflexus: 50%
Amaranthus retroflexus; dose 75 g/ha
  inhibition ratio, Amaranthus retroflexus: 70%
Amaranthus retroflexus
  herbicidal activity inhibition ratio (%), Amaranthus retroflexus: 98%
Digitaria sanguinalis; dose 37.5 g/ha
  inhibition ratio, Digitaria sanguinalis: 80%
Digitaria sanguinalis; dose 75 g/ha
  inhibition ratio, Digitaria sanguinalis: 75%
Digitaria sanguinalis
  herbicidal activity inhibition ratio (%), Digitaria sanguinalis: 90%
Echinochloa crusgalli; dose 37.5 g/ha
  inhibition ratio, Echinochloa crusgalli: 40%
Echinochloa crusgalli; dose 75 g/ha
  inhibition ratio, Echinochloa crusgalli: 55%
Echinochloa crusgalli
  herbicidal activity inhibition ratio (%), Echinochloa crusgalli: 100%
Eclipta prostrata; dose 37.5 g/ha
  inhibition ratio, Eclipta prostrata: 60%
Eclipta prostrata; dose 75 g/ha
  inhibition ratio, Eclipta prostrata: 78%
Eclipta prostrata
  herbicidal activity inhibition ratio (%), Eclipta prostrata: 100%
Setaria viridis; dose 37.5 g/ha
  inhibition ratio, Setaria viridis: 83%
Setaria viridis; dose 75 g/ha
  inhibition ratio, Setaria viridis: 93%
Setaria viridis
  herbicidal activity inhibition ratio (%), Setaria viridis: 100%
maize; dose 75 g/ha
  inhibition ratio, Maize (crop safety): 0%
maize; dose 150 g/ha
  inhibition ratio, Maize (crop safety): 15%
wheat; dose 75 g/ha
  inhibition ratio, Wheat (crop safety): 0%
wheat; dose 150 g/ha
  inhibition ratio, Wheat (crop safety): 10%

## CC(C)c1ccc(-n2c(=O)c3cc(C(=O)C4=C(O)CCCC4=O)ccc3n(C)c2=O)cc1 [Compound 36]
Abutilon theophrasti
  herbicidal activity inhibition ratio (%), Abutilon theophrasti: 50%
Amaranthus retroflexus
  herbicidal activity inhibition ratio (%), Amaranthus retroflexus: 35%
Digitaria sanguinalis
  herbicidal activity inhibition ratio (%), Digitaria sanguinalis: 100%
Echinochloa crusgalli
  herbicidal activity inhibition ratio (%), Echinochloa crusgalli: 25%
Eclipta prostrata
  herbicidal activity inhibition ratio (%), Eclipta prostrata: 0%
Setaria viridis
  herbicidal activity inhibition ratio (%), Setaria viridis: 50%

## Cc1cc(C)c(-n2c(=O)c3cc(C(=O)C4=C(O)CCCC4=O)ccc3n(C)c2=O)c(C)c1 [Compound 67]
Abutilon theophrasti
  herbicidal activity inhibition ratio (%), Abutilon theophrasti: 95%
Amaranthus retroflexus
  herbicidal activity inhibition ratio (%), Amaranthus retroflexus: 80%
Digitaria sanguinalis
  herbicidal activity inhibition ratio (%), Digitaria sanguinalis: 80%
Echinochloa crusgalli
  herbicidal activity inhibition ratio (%), Echinochloa crusgalli: 83%
Eclipta prostrata
  herbicidal activity inhibition ratio (%), Eclipta prostrata: 0%
Setaria viridis
  herbicidal activity inhibition ratio (%), Setaria viridis: 80%

## Cc1ccc(-n2c(=O)c3cc(C(=O)C4=C(O)CC(C)(C)CC4=O)ccc3n(C)c2=O)cc1 [Compound 15]
Abutilon theophrasti
  herbicidal activity inhibition ratio (%), Abutilon theophrasti: 60%
Amaranthus retroflexus
  herbicidal activity inhibition ratio (%), Amaranthus retroflexus: 70%
Digitaria sanguinalis
  herbicidal activity inhibition ratio (%), Digitaria sanguinalis: 75%
Echinochloa crusgalli
  herbicidal activity inhibition ratio (%), Echinochloa crusgalli: 70%
Eclipta prostrata
  herbicidal activity inhibition ratio (%), Eclipta prostrata: 60%
Setaria viridis
  herbicidal activity inhibition ratio (%), Setaria viridis: 75%

## Cn1c(=O)n(-c2cc(Cl)cc(Cl)c2)c(=O)c2cc(C(=O)C3=C(O)CC(C)(C)CC3=O)ccc21 [Compound 8]
Abutilon theophrasti
  herbicidal activity inhibition ratio (%), Abutilon theophrasti: 0%
Amaranthus retroflexus
  herbicidal activity inhibition ratio (%), Amaranthus retroflexus: 100%
Digitaria sanguinalis
  herbicidal activity inhibition ratio (%), Digitaria sanguinalis: 90%
Echinochloa crusgalli
  herbicidal activity inhibition ratio (%), Echinochloa crusgalli: 75%
Eclipta prostrata
  herbicidal activity inhibition ratio (%), Eclipta prostrata: 80%
Setaria viridis
  herbicidal activity inhibition ratio (%), Setaria viridis: 85%

## Cn1c(=O)n(-c2ccc(C(F)(F)F)cc2)c(=O)c2cc(C(=O)C3=C(O)CCCC3=O)ccc21 [Compound 30]
Abutilon theophrasti
  herbicidal activity inhibition ratio (%), Abutilon theophrasti: 100%
Amaranthus retroflexus
  herbicidal activity inhibition ratio (%), Amaranthus retroflexus: 100%
Digitaria sanguinalis
  herbicidal activity inhibition ratio (%), Digitaria sanguinalis: 60%
Echinochloa crusgalli
  herbicidal activity inhibition ratio (%), Echinochloa crusgalli: 85%
Eclipta prostrata
  herbicidal activity inhibition ratio (%), Eclipta prostrata: 60%
Setaria viridis
  herbicidal activity inhibition ratio (%), Setaria viridis: 30%

## Cc1cccc(C)c1-n1c(=O)c2cc(C(=O)C3=C(O)CC(C)(C)CC3=O)ccc2n(C)c1=O [Compound 98]
Abutilon theophrasti
  herbicidal activity inhibition ratio (%), Abutilon theophrasti: 100%
Amaranthus retroflexus
  herbicidal activity inhibition ratio (%), Amaranthus retroflexus: 100%
Digitaria sanguinalis
  herbicidal activity inhibition ratio (%), Digitaria sanguinalis: 50%
Echinochloa crusgalli
  herbicidal activity inhibition ratio (%), Echinochloa crusgalli: 85%
Eclipta prostrata
  herbicidal activity inhibition ratio (%), Eclipta prostrata: 88%
Setaria viridis
  herbicidal activity inhibition ratio (%), Setaria viridis: 80%
